# B1: C. albicans Eno1 (enzyme, UniProt P30575 1-440, looked up)
# chain: MSYATKIHARYVYDSRGNPTVEVDFTTDKGLFRSIVPSGASTGVHEALELRDGDKSKWLGKGVLKAVANVNDIIAPALIKAKIDVVDQAKIDEFLLSLDGTPNKSKLGANAILGVSLAAANAAAAAQGIPLYKHIANISNAKKGKFVLPVPFQNVLNGGSHAGGALAFQEFMIAPTGVSTFSEALRIGSEVYHNLKSLTKKKYGQSAGNVGDEGGVAPDIKTPKEALDLIMDAIDKAGYKGKVGIAMDVASSEFYKDGKYDLDFKNPESDPSKWLSGPQLADLYEQLISEYPIVSIEDPFAEDDWDAWVHFFERVGDKIQIVGDDLTVTNPTRIKTAIEKKAANALLLKVNQIGTLTESIQAANDSYAAGWGVMVSHRSGETEDTFIADLSVGLRSGQIKTGAPARSERLAKLNQILRIEEELGSEAIYAGKDFQKASQL
# notes: also called CaEno1; enolase; source: E. coli BL21(DE3), purified (Ni-NTA, Superdex 200 SEC)
# What was measured:
# Candida albicans 103 = assay: Checkerboard microdilution assay with fluconazole; format: cell-based
# Text: Ta b l e S3. Interaction of fluconazole ( FLC) and BE probes against isolates of Candida albicans
# Compounds Molecular structure Individual action Interaction MIC(μg/ mL ) FICI Mode of
# MIC (μg /mL) FLC Compounds interaction
# [1] = test system: C. albicans eno1/eno1 mutant strain; assay: Galleria mellonella infection model, eno1/eno1 strain; format: in vivo, Candida albicans; settings: G. mellonella, 10 mg/kg
# Experimental: To assess whether Eno1 is a therapeutic target of BE, we constructed a homozygous deletion strain for the ENO1 gene (eno1/eno1). We then investigated the difference in the antifungal efficacy of BE on the infections caused by the parent strain SN152 and the eno1/eno1 strain in the Galleria mellonella infection model. We divided the G. mellonella into 5 groups, with 10 larvae in each group. All 10 larvae died after a 24-h infection with the SN152 strain, while only 3 larvae died after 24 h when infected with the eno1/eno1 strain; the remaining larvae died within 7 days. Compared with the group infected with the parent strain, the survival time of the group infected with the eno1/eno1 strain was longer (P < 0.01) (Fig. 4A). […] The survival rate of larvae in the BE (10 mg/kg of body weight)-treated, SN152 strain-infected group was extended by 30%, compared with that in the group infected with the SN152 strain but without antifungal drug treatment (P < 0.001) (Fig. 4B). […] All 10 larvae in the BE-treated group died within 6 days, and all 10 larvae without BE treatment were killed within 7 days (Fig. 4C). However, FLC (10 mg/kg) can extend the survival rate of larvae infected by the eno1/eno1 strain by 60% (P < 0.01) (Fig. 4D) compared with the group infected with the eno1/eno1 strain without antifungal drug treatment.
# FIG 4 Eno1 acts as a therapeutic target of BE. […] Each curve represents a group of 10 larvae (n =10) monitored daily for survival for up to 10 days after infection. […]
# Virulence testing of C. albicans was done in Galleria mellonella as described previously ([56]). […] After growth in YPD media overnight at 30°C and 200 rpm, C. albicans SN152 cells or eno1/eno1 mutant cells were washed with PBS 3 times and diluted to the desired concentration (1 × 10^7 cells/mL) determined by counting with a hemacytometer. […] The death of G. mellonella was assessed daily and analyzed statistically by the Kaplan-Meier method (log-rank test).
# CaEno1 = target: T1, CaEno1 (Candida albicans, UniProt P30575); settings: read-out: IC50 inhibiting enolase activity; CaEno1 30 nM, 2-PG 1 mM
# T1 sequence (P30575 1-440): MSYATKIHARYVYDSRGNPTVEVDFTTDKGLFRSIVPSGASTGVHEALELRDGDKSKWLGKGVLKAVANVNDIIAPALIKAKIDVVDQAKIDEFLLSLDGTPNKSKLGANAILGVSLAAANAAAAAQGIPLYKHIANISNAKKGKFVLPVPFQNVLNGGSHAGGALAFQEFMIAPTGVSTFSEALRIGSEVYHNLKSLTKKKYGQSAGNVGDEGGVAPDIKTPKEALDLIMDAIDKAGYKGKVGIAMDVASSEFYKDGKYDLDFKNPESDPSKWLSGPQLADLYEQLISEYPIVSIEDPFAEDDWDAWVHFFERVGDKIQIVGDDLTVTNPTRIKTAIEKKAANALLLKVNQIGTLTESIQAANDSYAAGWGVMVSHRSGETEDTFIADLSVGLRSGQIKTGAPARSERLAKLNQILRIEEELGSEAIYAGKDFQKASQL
# Experimental: Data are shown as the means ± standard deviations. […] Data are shown as the means ± standard deviations.
# Enolase activity was determined by direct spectrophotometric assay via measuring the increase of absorbance at 240 nm of phosphoenolpyruvate (PEP) as described previously with some modifications ([54]). Briefly, the reaction buffer (pH 7.0) containing 10 mM imidazole, 200 mM KCl, and 0.5 mM MgAc in a final reaction volume of 100 μL was mixed with Eno1 (a final concentration of 30 nM), followed by the mixture of 2-phosphoglycerate (2-PG) (Yuanye Biotech Shanghai) with a final concentration of 1 mM. The enolase activity of Eno1 was evaluated by measuring the increase of absorbance (OD240) at room temperature for 10 min. […] The well-known enolase inhibitor sodium fluoride (NaF; Sangon Biotech) was initiated from 5 mM and used as a control ([29]). Inhibition curves were fitted by nonlinear regression (four parameters) using the GraphPad Prism software.
# [2] = target: the molecule itself; assay: crystal structure; X-ray crystals of CaEno1 alone and of CaEno1 with 2-PG, sitting drop at 13°C, space group C2; four Eno1 chains (two dimers) in the asymmetric unit
molecule,measurement,setting,value
C#CCOc1cc(C2(C(F)(F)F)N=N2)ccc1COc1cc2oc(-c3ccccc3)cc(=O)c2c(O)c1N [BE-1],Interaction MIC FLC,Candida albicans 103; MIC of FLC in combination with the compound,> 64 µg/mL
same,Interaction MIC Compounds,Candida albicans 103; MIC of the compound in combination with FLC,1 µg/mL
same,FICI,Candida albicans 103; combination with FLC,1.01
same,Mode of interaction,"Candida albicans 103; combination with FLC, FLC-resistant C. albicans",Indifference
same,Individual action MIC,Candida albicans 103; compound alone,> 64 µg/mL
"OC(Cn1cncn1)(Cn1cncn1)c1ccc(F)cc1F [FLC, fluconazole]",survival rate of larvae extended versus infected group without drug treatment,[1],60%
"[F-].[Na+] [NaF, sodium fluoride]",IC50,CaEno1,504 ± 7.1 µM
B1,stoichiometry N,[2],2
